# Where “and” joins values, the source holds several entries; their conditions need not be identical. Equal entries are not always repeated.
# What was measured:
# Experiment in all cases: radiometric filter-binding kinase assay, Kinase HotSpot
# Details in all cases: compound 0.5 µM; ATP 10 µM
# ABL2 (human) = ABL2 (human) (UniProt P42684)
# AURKC (human) = AURKC (human) (UniProt Q9UQB9)
# BMX (human) = BMX (human) (UniProt P51813)
# CAMK2B (human) = CAMK2B (human) (UniProt Q13554)
# CAMK4 (human) = CAMK4 (human) (UniProt Q16566)
# CDK2 CCNA2 (human) = CDK2 CCNA2 (human) (UniProt P24941+P20248)
# CDK9 CCNT1 (human) = CDK9 CCNT1 (human) (UniProt P50750+O60563)
# CSF1R (human) = CSF1R (human) (UniProt P07333)
# CSNK2A2 (human) = CSNK2A2 (human) (UniProt P19784)
# DAPK1 (human) = DAPK1 (human) (UniProt P53355)
# DDR2 (human) = DDR2 (human) (UniProt Q16832)
# EPHA7 (human) = EPHA7 (human) (UniProt Q15375)
# EPHB3 (human) = EPHB3 (human) (UniProt P54753)
# FGFR2 (human) = FGFR2 (human) (UniProt P21802)
# FRK (human) = FRK (human) (UniProt P42685)
# HIPK2 (human) = HIPK2 (human) (UniProt Q9H2X6)
# INSRR (human) = INSRR (human) (UniProt P14616)
# ITK (human) = ITK (human) (UniProt Q08881)
# LYN (human) = LYN (human) (UniProt P07948)
# MAP4K2 (human) = MAP4K2 (human) (UniProt Q12851)
# MATK (human) = MATK (human) (UniProt P42679)
# [1] = system: MKNK1 (human), Q9BUB5 [T385D; 165-205 del]
# MKNK2 (human) = MKNK2 (human) (UniProt Q9HBH9)
# MST4 (human) = MST4 (human) (UniProt Q9P289)
# NEK11 (human) = NEK11 (human) (UniProt Q8NG66)
# NTRK2 (human) = NTRK2 (human) (UniProt Q16620)
# PAK1 (human) = PAK1 (human) (UniProt Q13153)
# PASK (human) = PASK (human) (UniProt Q96RG2)
# PBK (human) = PBK (human) (UniProt Q96KB5)
# PHKG2 (human) = PHKG2 (human) (UniProt P15735)
# PLK1 (human) = PLK1 (human) (UniProt P53350)
# PRKACA (human) = PRKACA (human) (UniProt P17612)
# PRKCA (human) = PRKCA (human) (UniProt P17252)
# PRKCB2 (human) = PRKCB2 (human) (UniProt P05771)
# PRKD2 (human) = PRKD2 (human) (UniProt Q9BZL6)
# PRKG1 (human) = PRKG1 (human) (UniProt Q13976)
# RIPK2 (human) = RIPK2 (human) (UniProt O43353)
# RPS6KA1 KD1 KD2 (human) = RPS6KA1 KD1 KD2 (human) (UniProt Q15418)
# SGK3 (human) = SGK3 (human) (UniProt Q96BR1)
# SRMS (human) = SRMS (human) (UniProt Q9H3Y6)
# SRPK2 (human) = SRPK2 (human) (UniProt P78362)
# YES1 (human) = YES1 (human) (UniProt P07947)
# DAPK1 (human), sequence (P53355 whole entry, looked up): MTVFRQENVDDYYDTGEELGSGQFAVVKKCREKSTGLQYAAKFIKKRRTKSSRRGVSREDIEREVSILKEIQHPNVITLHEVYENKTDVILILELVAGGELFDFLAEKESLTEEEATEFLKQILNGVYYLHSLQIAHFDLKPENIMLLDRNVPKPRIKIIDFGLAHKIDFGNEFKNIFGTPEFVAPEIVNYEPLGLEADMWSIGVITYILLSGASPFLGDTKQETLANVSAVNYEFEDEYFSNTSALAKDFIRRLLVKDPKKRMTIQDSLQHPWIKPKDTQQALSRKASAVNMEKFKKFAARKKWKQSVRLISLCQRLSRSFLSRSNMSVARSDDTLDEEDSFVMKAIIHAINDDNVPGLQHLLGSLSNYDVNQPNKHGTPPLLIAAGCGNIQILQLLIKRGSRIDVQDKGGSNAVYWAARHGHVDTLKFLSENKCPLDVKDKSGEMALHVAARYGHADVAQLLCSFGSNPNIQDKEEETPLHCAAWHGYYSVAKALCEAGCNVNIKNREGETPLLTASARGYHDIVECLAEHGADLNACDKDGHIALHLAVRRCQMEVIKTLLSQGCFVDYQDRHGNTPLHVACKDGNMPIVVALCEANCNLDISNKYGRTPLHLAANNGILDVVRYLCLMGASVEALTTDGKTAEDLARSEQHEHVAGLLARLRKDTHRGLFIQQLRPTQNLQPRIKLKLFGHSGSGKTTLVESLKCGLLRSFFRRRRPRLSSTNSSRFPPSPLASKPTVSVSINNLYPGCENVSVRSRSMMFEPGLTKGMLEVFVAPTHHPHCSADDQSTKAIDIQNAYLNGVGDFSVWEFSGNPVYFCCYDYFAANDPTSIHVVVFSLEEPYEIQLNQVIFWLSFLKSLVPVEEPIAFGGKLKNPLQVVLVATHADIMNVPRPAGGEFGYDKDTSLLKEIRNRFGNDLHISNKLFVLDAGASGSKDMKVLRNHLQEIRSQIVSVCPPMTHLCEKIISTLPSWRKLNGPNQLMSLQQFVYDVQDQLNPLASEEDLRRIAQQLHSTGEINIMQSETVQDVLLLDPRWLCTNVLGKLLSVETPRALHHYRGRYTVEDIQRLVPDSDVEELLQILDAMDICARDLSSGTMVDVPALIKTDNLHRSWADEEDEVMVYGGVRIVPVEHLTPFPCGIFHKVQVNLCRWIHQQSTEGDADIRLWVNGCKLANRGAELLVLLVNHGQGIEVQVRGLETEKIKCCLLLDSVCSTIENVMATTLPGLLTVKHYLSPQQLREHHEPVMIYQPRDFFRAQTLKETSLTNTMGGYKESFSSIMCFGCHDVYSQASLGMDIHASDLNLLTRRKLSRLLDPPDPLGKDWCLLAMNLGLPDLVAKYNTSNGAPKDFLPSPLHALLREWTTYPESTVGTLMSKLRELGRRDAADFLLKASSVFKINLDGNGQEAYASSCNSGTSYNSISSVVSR
# FRK (human), sequence (P42685 whole entry, looked up): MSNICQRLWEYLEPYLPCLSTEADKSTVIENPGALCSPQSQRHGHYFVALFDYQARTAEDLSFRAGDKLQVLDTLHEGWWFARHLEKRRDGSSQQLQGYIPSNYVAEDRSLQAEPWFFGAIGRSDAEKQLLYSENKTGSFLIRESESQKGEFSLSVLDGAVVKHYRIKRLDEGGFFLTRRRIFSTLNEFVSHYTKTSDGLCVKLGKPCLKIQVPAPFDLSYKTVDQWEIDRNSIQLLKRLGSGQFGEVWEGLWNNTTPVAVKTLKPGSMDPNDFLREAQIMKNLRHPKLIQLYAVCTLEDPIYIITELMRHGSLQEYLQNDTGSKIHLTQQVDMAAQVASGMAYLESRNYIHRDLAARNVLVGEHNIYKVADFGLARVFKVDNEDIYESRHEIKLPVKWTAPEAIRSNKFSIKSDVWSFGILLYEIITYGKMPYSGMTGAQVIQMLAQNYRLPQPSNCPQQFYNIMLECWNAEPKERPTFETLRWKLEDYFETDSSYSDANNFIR
# PRKG1 (human), sequence (Q13976 whole entry, looked up): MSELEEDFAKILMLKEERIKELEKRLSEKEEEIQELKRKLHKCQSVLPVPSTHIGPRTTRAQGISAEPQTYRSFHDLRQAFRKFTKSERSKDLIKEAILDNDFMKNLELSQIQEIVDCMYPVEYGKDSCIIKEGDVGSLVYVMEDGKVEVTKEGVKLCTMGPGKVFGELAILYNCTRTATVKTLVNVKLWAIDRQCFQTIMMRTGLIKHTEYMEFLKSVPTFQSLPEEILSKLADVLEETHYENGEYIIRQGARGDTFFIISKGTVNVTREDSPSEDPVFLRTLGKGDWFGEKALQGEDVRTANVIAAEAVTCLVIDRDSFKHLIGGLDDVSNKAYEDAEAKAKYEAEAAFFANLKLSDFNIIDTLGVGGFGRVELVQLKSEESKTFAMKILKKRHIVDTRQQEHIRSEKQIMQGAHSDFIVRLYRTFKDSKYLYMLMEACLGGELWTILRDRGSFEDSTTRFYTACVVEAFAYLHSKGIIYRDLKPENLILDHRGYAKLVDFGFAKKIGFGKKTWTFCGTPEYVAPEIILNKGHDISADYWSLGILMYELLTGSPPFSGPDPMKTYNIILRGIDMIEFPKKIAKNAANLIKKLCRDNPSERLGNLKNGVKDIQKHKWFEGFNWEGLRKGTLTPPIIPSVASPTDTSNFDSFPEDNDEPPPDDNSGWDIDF
# MKNK2 (human), sequence (Q9HBH9 whole entry, looked up): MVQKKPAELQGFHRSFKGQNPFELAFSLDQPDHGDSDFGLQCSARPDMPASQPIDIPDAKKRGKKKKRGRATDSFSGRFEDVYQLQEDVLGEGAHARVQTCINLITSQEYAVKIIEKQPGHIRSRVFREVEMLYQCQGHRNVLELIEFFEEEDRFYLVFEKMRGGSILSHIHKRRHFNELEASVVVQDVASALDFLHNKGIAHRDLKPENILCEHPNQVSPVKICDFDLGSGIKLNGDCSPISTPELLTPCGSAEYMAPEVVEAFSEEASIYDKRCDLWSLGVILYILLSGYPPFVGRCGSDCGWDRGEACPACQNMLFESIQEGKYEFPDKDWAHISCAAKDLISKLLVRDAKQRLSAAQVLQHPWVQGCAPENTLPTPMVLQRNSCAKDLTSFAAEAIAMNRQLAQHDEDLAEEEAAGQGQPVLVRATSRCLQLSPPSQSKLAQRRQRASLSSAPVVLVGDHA
# CDK9 CCNT1 (human), sequence (O60563 whole entry, looked up): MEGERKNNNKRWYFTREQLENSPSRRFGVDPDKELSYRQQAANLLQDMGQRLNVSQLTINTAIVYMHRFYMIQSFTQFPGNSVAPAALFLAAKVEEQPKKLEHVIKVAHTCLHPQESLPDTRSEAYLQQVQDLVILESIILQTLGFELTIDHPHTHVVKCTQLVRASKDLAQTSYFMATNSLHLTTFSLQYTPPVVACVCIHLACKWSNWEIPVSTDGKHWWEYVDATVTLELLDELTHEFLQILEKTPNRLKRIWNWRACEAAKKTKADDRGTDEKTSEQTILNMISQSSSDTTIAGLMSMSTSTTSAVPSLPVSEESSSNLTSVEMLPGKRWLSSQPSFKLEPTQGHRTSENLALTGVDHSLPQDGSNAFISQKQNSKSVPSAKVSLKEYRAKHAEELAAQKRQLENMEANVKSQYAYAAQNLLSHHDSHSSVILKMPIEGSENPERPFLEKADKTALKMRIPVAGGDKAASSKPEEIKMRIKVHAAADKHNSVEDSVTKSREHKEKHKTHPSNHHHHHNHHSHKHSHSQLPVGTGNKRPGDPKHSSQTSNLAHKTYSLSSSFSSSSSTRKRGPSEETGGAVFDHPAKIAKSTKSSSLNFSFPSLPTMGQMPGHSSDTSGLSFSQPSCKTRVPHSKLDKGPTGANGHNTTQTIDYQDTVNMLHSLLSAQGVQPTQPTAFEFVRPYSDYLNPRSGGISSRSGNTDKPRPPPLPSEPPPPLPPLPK
# CDK9 CCNT1 (human), sequence (P50750 whole entry, looked up): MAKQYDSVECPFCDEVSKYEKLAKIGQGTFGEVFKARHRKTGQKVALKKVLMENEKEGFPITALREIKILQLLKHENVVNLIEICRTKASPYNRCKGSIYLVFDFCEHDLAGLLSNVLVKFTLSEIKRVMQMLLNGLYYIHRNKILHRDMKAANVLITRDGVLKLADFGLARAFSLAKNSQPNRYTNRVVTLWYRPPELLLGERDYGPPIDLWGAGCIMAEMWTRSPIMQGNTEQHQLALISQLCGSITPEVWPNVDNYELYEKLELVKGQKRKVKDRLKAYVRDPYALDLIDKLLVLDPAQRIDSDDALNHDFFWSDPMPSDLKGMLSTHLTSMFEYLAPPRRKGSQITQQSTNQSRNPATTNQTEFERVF
# CAMK2B (human), sequence (Q13554 whole entry, looked up): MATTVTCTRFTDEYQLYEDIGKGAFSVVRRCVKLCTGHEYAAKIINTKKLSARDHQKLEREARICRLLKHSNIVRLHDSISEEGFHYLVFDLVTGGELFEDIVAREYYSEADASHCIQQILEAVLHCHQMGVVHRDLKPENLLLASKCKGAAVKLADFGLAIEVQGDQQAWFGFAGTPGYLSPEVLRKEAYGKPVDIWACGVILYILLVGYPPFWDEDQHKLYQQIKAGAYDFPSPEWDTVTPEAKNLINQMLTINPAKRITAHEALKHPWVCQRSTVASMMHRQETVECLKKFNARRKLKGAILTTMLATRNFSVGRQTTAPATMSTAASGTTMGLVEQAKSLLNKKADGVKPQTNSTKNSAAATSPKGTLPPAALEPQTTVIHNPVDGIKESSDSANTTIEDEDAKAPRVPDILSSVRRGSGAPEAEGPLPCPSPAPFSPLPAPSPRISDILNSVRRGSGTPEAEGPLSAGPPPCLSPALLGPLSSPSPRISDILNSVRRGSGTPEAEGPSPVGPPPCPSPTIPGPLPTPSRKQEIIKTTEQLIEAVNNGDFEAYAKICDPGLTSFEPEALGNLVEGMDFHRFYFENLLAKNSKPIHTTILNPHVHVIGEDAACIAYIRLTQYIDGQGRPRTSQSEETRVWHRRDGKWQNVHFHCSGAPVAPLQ
smiles,measurement,setting,value
c1ccc2c(-c3ccncc3)c[nH]c2c1,residual activity,ABL2 (human),91.9%
same,residual activity,AURKC (human),93.1%
same,residual activity,BMX (human),95.8%
same,residual activity,CAMK2B (human),90.5%
same,residual activity,CAMK4 (human),101%
same,residual activity,CDK2 CCNA2 (human),99.7%
same,residual activity,CDK9 CCNT1 (human),75.2%
same,residual activity,CSF1R (human),101%
same,residual activity,CSNK2A2 (human),94.9%
same,residual activity,DAPK1 (human),97.7%
same,residual activity,DDR2 (human),92.6%
same,residual activity,EPHA7 (human),98.2%
same,residual activity,EPHB3 (human),100%
same,residual activity,FGFR2 (human),105%
same,residual activity,FRK (human),106%
same,residual activity,HIPK2 (human),94.1%
same,residual activity,INSRR (human),101%
same,residual activity,ITK (human),94.8%
same,residual activity,LYN (human),100% and 102%
same,residual activity,MAP4K2 (human),101%
same,residual activity,MATK (human),93.9%
same,residual activity,[1],75.5%
same,residual activity,MKNK2 (human),39.2%
same,residual activity,MST4 (human),104%
same,residual activity,NEK11 (human),76.9%
same,residual activity,NTRK2 (human),107%
same,residual activity,PAK1 (human),99.1%
same,residual activity,PASK (human),101%
same,residual activity,PBK (human),97.1%
same,residual activity,PHKG2 (human),101%
same,residual activity,PLK1 (human),102%
same,residual activity,PRKACA (human),91.6%
same,residual activity,PRKCA (human),97.4%
same,residual activity,PRKCB2 (human),89.5%
same,residual activity,PRKD2 (human),95.7%
same,residual activity,PRKG1 (human),64.8% and 77.7%
same,residual activity,RIPK2 (human),89.9%
same,residual activity,RPS6KA1 KD1 KD2 (human),93.8%
same,residual activity,SGK3 (human),92.8%
same,residual activity,SRMS (human),107%
same,residual activity,SRPK2 (human),103%
same,residual activity,YES1 (human),97.1%
CN(C)c1ccc(/C=C2\C(=O)Nc3ccccc32)cc1,residual activity,ABL2 (human),100%
same,residual activity,AURKC (human),91.1%
same,residual activity,BMX (human),92.2%
same,residual activity,CAMK2B (human),108%
same,residual activity,CAMK4 (human),97.8%
same,residual activity,CDK2 CCNA2 (human),102%
same,residual activity,CDK9 CCNT1 (human),94.5%
same,residual activity,CSF1R (human),77.5%
same,residual activity,CSNK2A2 (human),98.6%
same,residual activity,DAPK1 (human),92.2%
same,residual activity,DDR2 (human),103%
same,residual activity,EPHA7 (human),99.1%
same,residual activity,EPHB3 (human),94.9%
same,residual activity,FGFR2 (human),98.2%
same,residual activity,FRK (human),102%
same,residual activity,HIPK2 (human),106%
same,residual activity,INSRR (human),94.5%
same,residual activity,ITK (human),99%
same,residual activity,LYN (human),108% and 97.8%
same,residual activity,MAP4K2 (human),109%
same,residual activity,MATK (human),95.3%
same,residual activity,[1],97.3%
same,residual activity,MKNK2 (human),90.5%
same,residual activity,MST4 (human),90.9%
same,residual activity,NEK11 (human),96.4%
same,residual activity,NTRK2 (human),54.8%
same,residual activity,PAK1 (human),95.7%
same,residual activity,PASK (human),95%
same,residual activity,PBK (human),101%
same,residual activity,PHKG2 (human),95.9%
same,residual activity,PLK1 (human),103%
same,residual activity,PRKACA (human),104%
same,residual activity,PRKCA (human),94.5%
same,residual activity,PRKCB2 (human),103%
same,residual activity,PRKD2 (human),95.2%
same,residual activity,PRKG1 (human),86.9% and 99.7%
same,residual activity,RIPK2 (human),87.8%
same,residual activity,RPS6KA1 KD1 KD2 (human),78.4%
same,residual activity,SGK3 (human),107%
same,residual activity,SRMS (human),97.9%
same,residual activity,SRPK2 (human),100%
same,residual activity,YES1 (human),89.3%
O=C1NC(=O)c2c1c1c3ccccc3[nH]c1n1cncc21,residual activity,ABL2 (human),79.9%
same,residual activity,AURKC (human),47.6%
same,residual activity,BMX (human),91.7%
same,residual activity,CAMK2B (human),58.2%
same,residual activity,CAMK4 (human),89.8%
same,residual activity,CDK2 CCNA2 (human),75.9%
same,residual activity,CDK9 CCNT1 (human),82.9%
same,residual activity,CSF1R (human),64.9%
same,residual activity,CSNK2A2 (human),53.4%
same,residual activity,DAPK1 (human),26.6%
same,residual activity,DDR2 (human),96.5%
same,residual activity,EPHA7 (human),78.8%
same,residual activity,EPHB3 (human),79.7%
same,residual activity,FGFR2 (human),91.3%
same,residual activity,FRK (human),96.8%
same,residual activity,HIPK2 (human),94.4%
same,residual activity,INSRR (human),20.7%
same,residual activity,ITK (human),71.4%
same,residual activity,LYN (human),94.8% and 96.2%
same,residual activity,MAP4K2 (human),51.8%
same,residual activity,MATK (human),99.8%
same,residual activity,[1],56.3%
same,residual activity,MKNK2 (human),35%
same,residual activity,MST4 (human),69.4%
same,residual activity,NEK11 (human),99%
same,residual activity,NTRK2 (human),49%
same,residual activity,PAK1 (human),93.9%
same,residual activity,PASK (human),33.6%
same,residual activity,PBK (human),72.4%
same,residual activity,PHKG2 (human),108%
same,residual activity,PLK1 (human),50.8%
same,residual activity,PRKACA (human),98.2%
same,residual activity,PRKCA (human),66.5%
same,residual activity,PRKCB2 (human),94.7%
same,residual activity,PRKD2 (human),69.4%
same,residual activity,PRKG1 (human),85.9% and 93.8%
same,residual activity,RIPK2 (human),67.5%
same,residual activity,RPS6KA1 KD1 KD2 (human),31.1%
same,residual activity,SGK3 (human),111%
same,residual activity,SRMS (human),100%
same,residual activity,SRPK2 (human),80.2%
same,residual activity,YES1 (human),79.9%
COc1cc2ncnc(Nc3ccc(Oc4ccccc4)cc3)c2cc1OC,residual activity,ABL2 (human),96.4%
same,residual activity,AURKC (human),93.9%
same,residual activity,BMX (human),76.1%
same,residual activity,CAMK2B (human),98.2%
same,residual activity,CAMK4 (human),97.8%
same,residual activity,CDK2 CCNA2 (human),100%
same,residual activity,CDK9 CCNT1 (human),86.7%
same,residual activity,CSF1R (human),100%
same,residual activity,CSNK2A2 (human),98.2%
same,residual activity,DAPK1 (human),105%
same,residual activity,DDR2 (human),97.9%
same,residual activity,EPHA7 (human),100%
same,residual activity,EPHB3 (human),103%
same,residual activity,FGFR2 (human),93.7%
same,residual activity,FRK (human),72.2%
same,residual activity,HIPK2 (human),94.8%
same,residual activity,INSRR (human),102%
same,residual activity,ITK (human),93.6%
same,residual activity,LYN (human),21.6% and 42.6%
same,residual activity,MAP4K2 (human),104%
same,residual activity,MATK (human),94.3%
same,residual activity,[1],98.9%
same,residual activity,MKNK2 (human),47.9%
same,residual activity,MST4 (human),102%
same,residual activity,NEK11 (human),74.8%
same,residual activity,NTRK2 (human),103%
same,residual activity,PAK1 (human),98.2%
same,residual activity,PASK (human),104%
same,residual activity,PBK (human),92.6%
same,residual activity,PHKG2 (human),100%
same,residual activity,PLK1 (human),96.4%
same,residual activity,PRKACA (human),102%
same,residual activity,PRKCA (human),101%
same,residual activity,PRKCB2 (human),92.8%
same,residual activity,PRKD2 (human),100%
same,residual activity,PRKG1 (human),92.5% and 93.6%
same,residual activity,RIPK2 (human),55.5%
same,residual activity,RPS6KA1 KD1 KD2 (human),97.6%
same,residual activity,SGK3 (human),101%
same,residual activity,SRMS (human),31.6%
same,residual activity,SRPK2 (human),101%
same,residual activity,YES1 (human),7.96%

# From the kinase profiling compilation of Christmann-Franck et al. (2016)
